Data set [1] is described as follows: Polymorphic stability following grinding and tablet punching. The format is physicochemical.
The nature of data set [2]: Compressibility for dosage form preparation (e.g. tablets). The format is physicochemical.

Counter-ions that a name gives are not always drawn.

In the case of `C[C@H](CSC(=O)c1ccccc1)C(=O)N1C[C@@H](Sc2ccccc2)C[C@H]1C(=O)O` [(4S)-1-[(2S)-3-(benzoylthio)-2-methylpropionyl]-4-(phenylthio)-L-proline calcium salt], the “stability (changes in polymorphic form)” value in data set [1] is reported as “no changes in polymorphic form”. In data set [2], the compressibility entry is on record as “excellent compressibility”.
